Assay results as given in patent US12303471B2, “Methods of treatment of temozolomide-resistant glioma using coenzyme Q10” (BPGbio, Inc., priority 2015, dated 2025).

Tests used:
[1] = tested on: recurrent high-grade gliomas; details: patients with recurrent high-grade gliomas; cited from earlier work
[2] = tested on: MDA-MB231 cells; experiment: CellTiter-Fluor viability assay, co-treatment with Coenzyme Q10 and Complex II inhibitors; details: 5 μM Atpenin A5 with 0-1600 μM Coenzyme Q10, 72 h; FIG. 4
Method: To assess whether the effects of Coenzyme Q10 on Complex II-mediated respiration are functionally linked to Coenzyme Q10-induced cytotoxicity, MDA-MB231 cells were co-treated with two inhibitors of Complex II (atpenin A5 and malonate) which act at separate sites in Complex II.
The viability of MDA-MB231 cells treated with atpenin A5 and Coenzyme Q10 or malonate and Coenzyme Q10 was determined by a CellTiter-Fluor viability assay (Promega, Cat. No. G6080). Briefly, cells were co-treated with 0, 25, 50, 100, 200, 400, 800 or 1600 μM Coenzyme Q10 and either 5 μM Atpenin A5 or 5 mM malonic acid for 72 h, and then assayed per the manufacture's protocol.

[3] = tested on: MIA PaCa-2; experiment: Oxygen consumption rate during succinate-fueled mitochondrial respiration, permeabilized cells, Seahorse XF96; format: cell-based; details: 100, 137 or 274 μM Coenzyme Q10, State 3, State 4o, State 3u, FIG. 1
Method: (§1) Oxygen consumption rate (OCR) was measured during various states of succinate-fueled mitochondrial respiration in the triple-negative breast cancer cell line MDA-MB231 and the mutant K-Ras-driven pancreatic cancer cell line MIA PaCa-2 treated with different concentrations of Coenzyme Q10. […] The assays were performed in permeabilized adherent cells using the Seahorse XF96 Analyzer. Cells were permeabilized with XF PMP reagent and put into mitochondrial State 3 by replacing the growth media with Mitochondrial Assay Solution (containing mannitol, sucrose, KH2PO4, MgCl2, HEPES, and EGTA) supplemented with succinate, rotenone (to block reverse electron transfer back to Complex I), and ADP. OCR was measured in State 3, and then again upon sequential injection of oligomycin and FCCP to induce State 4o (o=oligomycin) and State 3u (u=uncoupled).

[4] = tested on: MDA-MB231; experiment: as above; format: cell-based; details: 100, 155 or 310 μM Coenzyme Q10, State 3, State 4o, State 3u, FIG. 1
Method: as §1

[5] = tested on: TMZ-resistant glioblastoma; experiment: Coenzyme Q10 in TMZ-resistant glioblastoma in humans; format: in vivo; details: 4% coenzyme Q10 nanosuspension, 24-, 48- or 96-hour infusion, monotherapy
Method: The efficacy of Coenzyme Q10 in treating TMZ-resistant glioblastoma is evaluated in humans using Coenzyme Q10 monotherapy and Coenzyme Q10 in combination with chemotherapy. The Coenzyme Q10 is provided as a 4% coenzyme Q10 nanosuspension formulation as described in WO 2011/112900, the entire contents of which are expressly incorporated herein by reference. The study is designed with dosing schedules of a 24-hour infusion, 48-hour infusion, or 96-hour continuous infusion. This extended dosage schedule is intended to decrease Coenzyme Q10 Cmax values and maintain steady-state levels. Patient survival time and glioblastoma tumor status before, during, and after Coenzyme Q10 treatment is evaluated.

[6] = tested on: mutant K-Ras-driven pancreatic cancer cell line MIA PaCa-2; experiment: Coenzyme Q10 sensitivity (IC50/IC90) of MIA PaCa-2 cells; format: cell-based; details: Homo sapiens
Method: as §1

[7] = Coenzyme Q10 plasma levels in rats; format: in vivo; details: four days after treatment initiated
Method: Coenzyme Q10 plasma levels were measured in the rats bearing C6 gliomas four days after Coenzyme Q10 treatment was initiated.

[8] = tested on: triple-negative breast cancer cell line MDA-MB231; experiment: Coenzyme Q10 sensitivity (IC50/IC90) of MDA-MB231 cells; format: cell-based; details: Homo sapiens, MDA-MB-231
Method: as §1

[9] = tested on: Rat C6 glioma cells; experiment: Rat model of glioma (C6 glioma cell implantation); format: in vivo, Sprague-Dawley rats
Method: The C6 glioma cells develop into a glioma-like tumor. The rats bearing C6 gliomas were treated twice per day with 5, 10, 25 or 50 mg/kg Coenzyme Q10 by intraperitoneal or subcutaneous injection. Coenzyme Q10 treatment was initiated 1 day (n=3), 4 days (n=14), or 8 days (n=3) after implantation of C6 glioma cells. Coenzyme Q10 treatment was continued twice daily until the rat died, or until 34 days after implantation of glioma cells. […] Four of the rats treated with Coenzyme Q10 survived for at least 50 days after implantation of the C6 glioma cells, while none of the untreated control rats survived more than 15 days after implantation. In fact, two of the rats treated with Coenzyme Q10 survived more than 100 days post implantation (see below and FIGS. 9 and 10). Of the four rats that were alive at Day 50, 1 received 10 mg/kg Coenzyme Q10 starting 4 days after implantation, and 3 received 50 mg/kg Coenzyme Q10 starting 4 days or 8 days after implantation.
Enlarged ventricles (hydrocephalus) were present 27 days post C6 implantation (FIG. 9A). At 34 days post-implantation, enlarged ventricles were stilled observed. In addition, there was a complex mass in the tumor area which was not clearly growing (FIG. 9B). Coenzyme Q10 treatment was discontinued at Day 34. […] At 27 days post C6 implantation, a complex mass was visible, but it was unclear if this mass represented a tumor or a scar (FIG. 10A). At 34 days post C6 implantation, a scar was visible at the site of implantation and improvement in the overall condition of the rat was observed that was not consistent with tumor growth (FIG. 10B).

[10] = tested on: human U373 cells (TMZ-sensitive and TMZ-resistant GBM cells); experiment: TMZ-sensitive and TMZ-resistant U373 glioblastoma tumors in mice; format: in vivo; details: intravenous single daily dose of 4% Coenzyme Q10, 50 mg/kg/day
Excerpt: Equal numbers (1×10^7) of human U373 cells left untreated and thus sensitive (TMZ-sensitive) versus TMZ long-term treated (TMZ-resistant) GBM cells (see Calve et al., 2010, Neoplasia 12(9): 727-739, which is incorporated by reference herein in its entirety) are suspended in MATRIGEL® and injected into mice. Tumors are allowed to develop, and treatment is not initiated unless tumors are present.
Mice having tumors are randomized into 4 groups of 30 mice each as follows: • i. Group 1—No treatment, TMZ-sensitive • ii. Group 2—No treatment, TMZ-resistant • iii. Group 3—Intravenous single daily dose of 4% Coenzyme Q10, 50 mg/kg/day, TMZ-sensitive • iv. Group 4—Intravenous single daily dose of 4% Coenzyme Q10, 50 mg/kg/day, TMZ-resistant
Animals are observed for viability and tumor growth is monitored. Animal survival results are collected through day 400.

[11] = tested on: MDA-MB231 cells; experiment: Propidium iodide (PI) and Annexin V flow cytometry cell death assay; format: cell-based; details: malonate 5 mM with Coenzyme Q10 155 μM or 310 μM, 72 hours; FIG. 5
Method: MDA-MB231 cells were treated with Coenzyme Q10 and/or malonate as shown below: • 1. Untreated • 2. Malonate (5 mM) • 3.
At 72 hours post treatment, cell culture supernatant (containing detached apoptotic cells) and adherent cells were harvested by trypsinization, centrifuged at 500 g for 5 minutes, and the resulting pellets were washed in staining media (PBS, 0.5% FBS). Cells were co-stained with FITC conjugated anti-Annexin-V (1:100, Molecular Probes) to detect PS exposure on the outer membrane surface and Propidium Iodine (PI, 1:2500, Molecular Probes) in 200 μL binding buffer (Molecular Probes). After a 15 minute incubation in the dark, the percentage of Annexin V+/PI+ cells was analyzed using an Accuri C6 Flow Cytometer (BD Biosciences) and samples were run within one hour after staining.
The cells were rated as follows: • 1. PI-negative and Annexin V-negative: viable • 2. PI-negative and Annexin V-positive: early apoptosis • 3. PI-positive and Annexin V-positive: late apoptosis • 4. PI-positive and Annexin V-negative: dead.

## Bevacizumab: monoclonal antibody against vascular endothelial growth factor (VEGF)
[1]
  overall median survival: improved overall median survival
  response rates: 32-62%

## COc1[nH]c(=O)c(C(=O)[C@@H](C)C[C@H](C)[C@@H](Cl)CCl)c(O)c1OC [atpenin A5]
[2]
  effect of co-treatment on Coenzyme Q10-induced cytotoxicity: enhanced cytotoxicity

## COC1=C(OC)C(=O)C(CC=C(C)CCC=C(C)CCC=C(C)CCC=C(C)CCC=C(C)CCC=C(C)CCC=C(C)CCC=C(C)CCC=C(C)CCC=C(C)C)=C(C)C1=O [Coenzyme Q10, 2-(3,7,11,15,19,23,27,31,35,39-decamethyltetraconta-2,6,10,14,18,22,26,30,34,38-decaenyl)-5,6-dimethoxy-3-methyl-cyclohexa-2,5-diene-1,4-dione]
[3]
  succinate-fueled respiration (oxygen consumption rate): significantly decreased by Coenzyme Q10 in a dose dependent manner
[4]
  succinate-fueled respiration (oxygen consumption rate): significantly decreased by Coenzyme Q10 in a dose dependent manner
[5]
  tumor growth relative to standard chemotherapy: reduce tumor growth
[6]
  IC50: 137 µM
  IC90: 274 µM
[7]; 5, 10, 25 or 50 mg/kg twice daily intraperitoneal, FIG. 12
  dose that resulted in the highest Coenzyme Q10 plasma levels: 25 mg/kg
[7]; rats bearing C6 gliomas, 50 mg/kg twice daily, FIG. 11
  Coenzyme Q10 plasma levels, intraperitoneal compared to subcutaneous injection: significantly higher
[8]
  IC50: 155 µM
  IC90: 310 µM
[9]; 10 mg/kg twice daily i.p. from day 4, discontinued Day 34, 103 days post-implantation, FIG. 9C
  condition of surviving rat, coronal sections: appeared normal with possible scar tissue in the tumor area
[9]; 10 mg/kg twice daily, starting 4 days after implantation
  rats alive at Day 50: 1
[9]; 50 mg/kg twice daily i.p. from day 4, 103 days after C6 implantation, FIG. 10C
  condition of surviving rat, coronal sections: clinically normal
[9]; 50 mg/kg twice daily, starting 4 days or 8 days after implantation
  rats alive at Day 50: 3
[9]; 5, 10, 25 or 50 mg/kg twice per day intraperitoneal, n=20, no untreated control (n=33) survived more than 15 days
  rats that survived for at least 50 days after implantation of the C6 glioma cells: Four
[9]; Coenzyme Q10 twice daily intraperitoneal, n=20
  rats that survived more than 100 days post implantation: two
[10]
  glioblastoma tumor growth compared to control (untreated) animals: significantly reduced glioblastoma tumor growth
[10]; through day 400
  survival compared to control (untreated) animals: significantly increased survival

## O=C(O)CC(=O)O [malonate]
[11]
  effect on Coenzyme Q10-induced cell death: attenuated Coenzyme Q10-induced cell death
